{"source": "patent US20100190794A1", "about": "“Herbicidally Active Composition” (BASF SE, priority 2007, published 2010)", "assay_in_all_cases": "greenhouse test, pre-emergence treatment", "key": {"MATIN": {"system": "MATIN", "format": "in vivo, Matricaria inodora", "conditions": "250 g/ha a.s., Use Example 2", "from_the_text": "(§1) The culture containers used were plastic pots containing loamy sand with approximately 3.0% of humus as substrate. The seeds of the test plants were sown separately for each species.\n(§2) For the pre-emergence treatment, the active compounds, suspended or emulsified in water, were applied directly after sowing by means of finely distributing nozzles. The containers were irrigated gently to promote germination and growth and subsequently covered with transparent plastic hoods until the plants had rooted. This cover caused uniform germination of the test plants unless this was adversely affected by the active compounds.\n(§3) Depending on the species, the plants were kept at 10-25° C. and 20-35° C., respectively. The test period extended over 2 to 4 weeks. During this time, the plants were tended and their response to the individual treatments was evaluated.\n(§4) Evaluation was carried out using a scale from 0 to 100. 100 means no emergence of the plants, or complete destruction of at least the above-ground parts, and 0 means no damage or normal course of growth. Good herbicidal activity is given at values of at least 70, and very good herbicidal activity is given at values of at least 85.\n(§5) The respective stated components A and B, and if appropriate, C were formulated as a 5% by weight or 10% by weight strength emulsion concentrate or a commercially available formulation of component B was used and, with addition of the amount of solvent system, introduced into the spray liquor used for applying the active compound. In the examples, the solvent used was water.\n(§6) The test period extended over 20 or 21 days. During this time, the plants were tended, and their reactions to the treatment with active compound was monitored.\n(§7) What was evaluated was the damage by the chemical compositions using a scale of from 0 to 100%, in comparison to the untreated control plants. 0 means no damage, and 100 means complete destruction of the plants.\n(§8) In the examples below, using the method of S. R. Colby (1967) “Calculating synergistic and antagonistic responses of herbicide combinations”, Weeds 15, p. 22 ff., the value E, which is expected if the activity of the individual active compounds is only additive, was calculated.\n(§9) where X=percent activity using active compound A at an application rate a; Y=percent activity using active compound B at an application rate b; E=expected activity (in %) by A+B at application rates a+b.\n(§10) If the value found in experiments is higher than the value E calculated according to Colby, a synergistic effect is present."}, "PHACA": {"system": "PHACA", "format": "in vivo, Phalaris canariensis", "from_the_text": "as §1, §2, §3, §4, §5, §6, §7, §8, §9, §10"}, "LOLMU": {"system": "LOLMU", "format": "in vivo, Lolium multiflorum", "from_the_text": "as §1, §2, §3, §4, §5, §6, §7, §8, §9, §10"}, "CCHEC": {"system": "CCHEC", "format": "in vivo, Cenchrus echinatus", "from_the_text": "as §1, §2, §3, §4, §5, §6, §7, §8, §9, §10"}, "STEME": {"system": "STEME", "format": "in vivo, Stellaria media", "conditions": "Use Example 2", "from_the_text": "as §1, §2, §3, §4, §5, §6, §7, §8, §9, §10"}, "ALOMY": {"system": "ALOMY", "format": "in vivo, Alopecurus myosuroides", "from_the_text": "as §1, §2, §3, §4, §5, §6, §7, §8, §9, §10"}, "POAAN": {"system": "POAAN", "format": "in vivo, Poa annua", "from_the_text": "as §1, §2, §3, §4, §5, §6, §7, §8, §9, §10"}, "SETLU": {"system": "SETLU", "format": "in vivo, Setaria glauca", "conditions": "for Herbicidal action in % after 21 days against SETLU: Use Example 9", "from_the_text": "as §1, §2, §3, §4, §5, §6, §7, §8, §9, §10"}}}
{"smiles": "CN1C(=O)C(C)(Cc2ccccc2)N(C)C(=O)C1=Cc1ccccc1C#N", "note": "(stereo not drawn) [Example 20, 2-[5-Benzyl-1,4,5-trimethyl-3,6-dioxopiperazin-2-ylidenemethyl]benzo-nitrile]", "values": [{"measurement": "Herbicidal action in % after 20 days against MATIN", "setting": "MATIN", "result": 90, "unit": "%"}, {"measurement": "Herbicidal action in % after 20 days against PHACA", "setting": "PHACA; 250 g/ha a.s., Use Example 4", "result": 80, "unit": "%"}, {"measurement": "Herbicidal action in % after 20 days against PHACA", "setting": "PHACA; 500 g/ha a.s., Use Example 1", "result": 80, "unit": "%"}, {"measurement": "Herbicidal action in % after 20 days against LOLMU", "setting": "LOLMU; 125 g/ha a.s., Use Example 10", "result": 0, "unit": "%"}, {"measurement": "Herbicidal action in % after 21 days against LOLMU", "setting": "LOLMU; 125 g/ha a.s., Use Example 11", "result": 0, "unit": "%"}, {"measurement": "Herbicidal action in % after 20 days against LOLMU", "setting": "LOLMU; 125 g/ha a.s., Use Example 13", "result": 0, "unit": "%"}, {"measurement": "Herbicidal action in % after 20 days against LOLMU", "setting": "LOLMU; 250 g/ha a.s., Use Example 10", "result": 45, "unit": "%"}, {"measurement": "Herbicidal action in % after 20 days against LOLMU", "setting": "LOLMU; 250 g/ha a.s., Use Example 13", "result": 45, "unit": "%"}, {"measurement": "Herbicidal action in % after 20 days against LOLMU", "setting": "LOLMU; 500 g/ha a.s., Use Example 1", "result": 70, "unit": "%"}, {"measurement": "Herbicidal action in % after 21 days against CCHEC", "setting": "CCHEC; 62.5 g/ha a.s., Use Example 3", "result": 20, "unit": "%"}, {"measurement": "Herbicidal action in % after 20 days against CCHEC", "setting": "CCHEC; 250 g/ha a.s., Use Example 16", "result": 90, "unit": "%"}, {"measurement": "Herbicidal action in % after 20 days against STEME", "setting": "STEME; 62.5 g/ha a.s.", "result": 0, "unit": "%"}, {"measurement": "Herbicidal action in % after 20 days against STEME", "setting": "STEME; 125 g/ha a.s.", "result": 20, "unit": "%"}, {"measurement": "Herbicidal action in % after 20 days against STEME", "setting": "STEME; 250 g/ha a.s.", "result": 50, "unit": "%"}, {"measurement": "Herbicidal action in % after 20 days against ALOMY", "setting": "ALOMY; 62.5 g/ha a.s., Use Example 2", "result": 45, "unit": "%"}, {"measurement": "Herbicidal action in % after 20 days against ALOMY", "setting": "ALOMY; 125 g/ha a.s., Use Example 2", "result": 55, "unit": "%"}, {"measurement": "Herbicidal action in % after 20 days against ALOMY", "setting": "ALOMY; 125 g/ha a.s., Use Example 7", "result": 40, "unit": "%"}, {"measurement": "Herbicidal action in % after 20 days against ALOMY", "setting": "ALOMY; 125 g/ha a.s., Use Example 10", "result": 45, "unit": "%"}, {"measurement": "Herbicidal action in % after 20 days against ALOMY", "setting": "ALOMY; 125 g/ha a.s., Use Example 13", "result": 45, "unit": "%"}, {"measurement": "Herbicidal action in % after 20 days against ALOMY", "setting": "ALOMY; 125 g/ha a.s., Use Example 15", "result": 40, "unit": "%"}, {"measurement": "Herbicidal action in % after 20 days against ALOMY", "setting": "ALOMY; 250 g/ha a.s., Use Example 2", "result": 85, "unit": "%"}, {"measurement": "Herbicidal action in % after 20 days against ALOMY", "setting": "ALOMY; 250 g/ha a.s., Use Example 4", "result": 85, "unit": "%"}, {"measurement": "Herbicidal action in % after 20 days against ALOMY", "setting": "ALOMY; 250 g/ha a.s., Use Example 7", "result": 90, "unit": "%"}, {"measurement": "Herbicidal action in % after 20 days against ALOMY", "setting": "ALOMY; 250 g/ha a.s., Use Example 10", "result": 70, "unit": "%"}, {"measurement": "Herbicidal action in % after 20 days against ALOMY", "setting": "ALOMY; 250 g/ha a.s., Use Example 13", "result": 70, "unit": "%"}, {"measurement": "Herbicidal action in % after 20 days against ALOMY", "setting": "ALOMY; 250 g/ha a.s., Use Example 15", "result": 90, "unit": "%"}, {"measurement": "Herbicidal action in % after 20 days against POAAN", "setting": "POAAN; 125 g/ha a.s., Use Example 7", "result": 60, "unit": "%"}, {"measurement": "Herbicidal action in % after 20 days against POAAN", "setting": "POAAN; 125 g/ha a.s., Use Example 15", "result": 60, "unit": "%"}, {"measurement": "Herbicidal action in % after 20 days against POAAN", "setting": "POAAN; 250 g/ha a.s., Use Example 6", "result": 85, "unit": "%"}, {"measurement": "Herbicidal action in % after 20 days against POAAN", "setting": "POAAN; 250 g/ha a.s., Use Example 7", "result": 85, "unit": "%"}, {"measurement": "Herbicidal action in % after 20 days against POAAN", "setting": "POAAN; 250 g/ha a.s., Use Example 15", "result": 85, "unit": "%"}, {"measurement": "Herbicidal action in % after 20 days against POAAN", "setting": "POAAN; 500 g/ha a.s., Use Example 6", "result": 95, "unit": "%"}, {"measurement": "Herbicidal action in % after 21 days against SETLU", "setting": "SETLU; 125 g/ha a.s.", "result": 90, "unit": "%"}, {"measurement": "Herbicidal action in % after 20 days against SETLU", "setting": "SETLU; 125 g/ha a.s., Use Example 14", "result": 90, "unit": "%"}, {"measurement": "Herbicidal action in % after 21 days against SETLU", "setting": "SETLU; 250 g/ha a.s.", "result": 100, "unit": "%"}, {"measurement": "Herbicidal action in % after 20 days against SETLU", "setting": "SETLU; 250 g/ha a.s., Use Example 16", "result": 98, "unit": "%"}]}
